Source: article PMC2816717, “Active Fragments from Pro- and Antiapoptotic BCL-2 Proteins Have Distinct Membrane Behavior Reflecting Their Functional Divergence” (PLoS ONE, 2010)

Assays:
[1] = test system: isolated mitochondria; experiment: Cytochrome c release assay, source of mitochondria not stated; format: biochemical; conditions: for effect on isolated mitochondria, in words: summary in Discussion
Protocol: (§1) Figure 7 Cytochrome c release assays. Peptides were incubated with isolated mitochondria for the indicated times (min) and the release of cytochrome c was monitored by Western blotting (IB). MitoHSP70 was used as an equal-loading control for the pellet fraction. Control lanes indicate that in the preparation the MOM is intact and cytochrome c is retained within the intermembrane space. A. Cytochrome c release assays for the first (BAX-α5S, BCLX-α5S, BID-α6) and second helices (BAX-α6, BCLX-α6, BID-α7) of the ‘pore domain’ of BAX, BCL-xL and BID using mitochondria isolated from HEK293T cells. B. Cytochrome c release assays for BAX-α5M and BAX-α5MS using mitochondria isolated from MEF and MEK BAX/BAK -/- double knock-out cells (MEF DKO). C. Cytochrome c release assays for the BH3 peptides.
Last, we proceeded to perform similar dose-response experiments by measuring cytochrome c release from isolated mitochondria with peptides derived from the BH3 domains of BAX, BID and BCL-xL. […] On the other hand, the BH3 peptides from BAX and BID triggered mitochondrial cytochrome c release, although with markedly less efficiency (starting at 25 µM after 15–30 min of peptide exposure) than BAX-α5, BAX-α6 or BID-α6.
(§2) Crude mitochondria were prepared from HEK 293T, mouse embryo fibroblast (MEF) or BAX/BAK double knockout MEF cells (MEF-DKO). In brief, cells were mechanically broken using a 2 ml glass/glass Dounce homogenizer (Kontes) (30 strokes). Homogenates were cleared at 1500 g and mitochondria were spun down at 10 000 g. For cytochrome c release assays, 30 µg of crude mitochondria were resuspended at 1 mg/ml in KCl buffer supplemented with succinate (5 mM) and EGTA (0.5 mM). Peptides (2.5, 10 or 25 µM) were added to the samples and incubations were carried out at 30°C under agitation (300 rpm). At the indicated time points, samples were centrifuged (5 min, 10 000 g, 4°C); supernatants and pellets were recovered and analyzed by immunoblotting for Cytochrome c and mitoHsp70.

[2] = Langmuir monolayer penetration assay, lipid mixture not singled out (Figure 5); format: physicochemical; conditions: πi 5 mN/m; for final increase of surface pressure πmax (insertion), in words: Figure 5A; for final increase of surface pressure πmax (insertion), in words / initial velocity of surface pressure increase Vi (affinity), in words: peptide 0.2 µM, Hepes pH 7.4, duplicate; for initial velocity of surface pressure increase Vi (affinity), in words: Figure 5B
From the text: (§3) For the biophysical characterization of membrane active protein fragments, we have used Langmuir monolayers as in vitro model of lipid membranes. These supramolecular lipid films formed at the air-water interface are attractive membrane models, widely used for studying peptide-lipid interactions, [56], [57]. We have investigated the binding of peptides derived from the central helices of BAX, BCL-xL and BID at physiological pH with model phospholipid monolayers of a composition that imitates mitochondrial membranes. For this purpose we selected fragments encompassing the sequences corresponding to the first or second α-helices of the core hairpins of BAX, BCL-xL and BID, as defined in the water-soluble protein structures, [17], [19]. Because the structures of those proteins in a membrane environment is currently unavailable, for the case of the first hairpin helix of BAX and BCL-xL (α5) we analyzed both a short version (labeled “S”), including only the reported α-helical residues, and a long version (labeled “L”) that extends a few residues beyond the α-helix stretch at both ends. Divergence of the BID sequence precluded unambiguous alignment with the other two proteins and a similar peptide design. Peptides corresponding to the BH3 domain of BAX, BCL-xL and BID were also included in the study. The sequence and some general properties of the peptides analyzed in this study are described in Table 1 and Figure 1). Lipid mixtures of POPC/DOPE (2∶1) and POPC/DOPE/CL (1∶1∶1) were chosen to mimic the MOM and the contact sites between inner and outer mitochondrial membrane (MIM/MOM), respectively. Penetration assays were carried out at constant area by spreading the lipids at the air-buffer interface, compressing the film at πi = […] and then injecting the peptides into the subphase at a concentration of 0.2 µM (see Material and Methods). Subsequent peptide binding results typically in an increase of surface pressure. Thus, the peptide-monolayer interaction can be characterized by measurable kinetic properties, such as the initial velocity of surface pressure increase (Vi), which informs about the affinity of the peptide for the lipid-water interface, and the final increase of surface pressure (πmax), which can be related to the insertion ability of the peptide into the monolayer.
Figure 5 Changes in surface pressure after peptide injection. Peptides were injected underneath POPC/DOPE or POPC/DOPE/CL monolayers at constant area. A. Final increase of surface pressure πmax (mN/m) obtained for the different peptides. The dashed line denotes the threshold (Δπ = 4.8 mN/m) for significant surface pressure variation as determined using BAX-α5S without lipids (see text). B. Initial velocity of surface pressure increase (Vi = Δπ/s).
(§4) Monolayer experiments were performed on a computer-controlled Langmuir film balance (KSV 2000, three multi-compartment system, KSV Instrument Ltd., Finland) working in a symmetrical compression mode and enclosed in an opaque cabinet. The rectangular trough (V = 85 mL ±1 mL, S = 119.25 cm^2) was made of Teflon and the mobile barriers were made in Delrin. The surface pressure, π defined as γ0 – γ, where γ0 is the surface tension of the pure aqueous subphase and γ the surface tension exerted by phospholipids at the subphase surface, was measured by the Wilhelmy's method using a platinum plate with an accuracy of ±0.05 mN/m. The trough was filled with Hepes buffer (pH 7.4), used as subphase and thermostated with a water circulating bath (Lauda E100, LAUDA France, SARL). In all experiments, the subphase temperature was maintained at a constant value of 22.5±0.5°C.
Phospholipid monolayers were formed by deposition of 14 µl of spreading solutions at a clean air/buffer interface by means of a micropipette to reach a final amount of 14 nmol of phospholipids. […]

[3] = test system: mitochondria isolated from HEK293T cells; experiment: Cytochrome c release assay; format: biochemical
Protocol: Thus, we tested the ability of the different peptides to induce the release of mitochondrial proteins by incubating them with mitochondria isolated from HEK293T cells, and subsequently assaying the supernatant and pelleted fractions with antibodies for cytochrome c and mitoHSP70. […] On the other hand, incubation of mitochondria with 10 µM BID-α6 induced a slower release, with depletion of the mitochondrial pool of cytochrome c occurring only after 1 hour incubation.
as §1, §2

[4] = Langmuir monolayer penetration assay at constant area; format: physicochemical; conditions: control peptides, Figure S2 legend; unit not given (Δπ elsewhere in mN/m); conditions as Fig. 5: πi 5 mN/m, 0.2 µM
From the text: as §3, §4
Phospholipid monolayers were formed by deposition of 14 µl of spreading solutions at a clean air/buffer interface by means of a micropipette to reach a final amount of 14 nmol of phospholipids. After complete evaporation of the solvent (∼15 min), the monolayer was slowly compressed up to a defined lateral pressure (initial surface pressure πi) at a rate of 0.045 nm^2 molecule^−1 min^−1. The value of πi = 5 mN/m was chosen because it lies between the surface pressure set-off and surface pressures (e.g. 30 mN/m, which corresponds to a tightly packed film) where many peptides of the study will not insert. […]

[5] = test system: mitochondria isolated from BAX/BAK double knockout mouse embryonic fibroblasts (MEF DKO); experiment: Cytochrome c release assay; format: biochemical; conditions: Figure 7B
Protocol: as §1
Crude mitochondria were prepared from HEK 293T, mouse embryo fibroblast (MEF) or BAX/BAK double knockout MEF cells (MEF-DKO). In brief, cells were mechanically broken using a 2 ml glass/glass Dounce homogenizer (Kontes) (30 strokes). Homogenates were cleared at 1500 g and mitochondria were spun down at 10 000 g. […] At the indicated time points, samples were centrifuged (5 min, 10 000 g, 4°C); supernatants and pellets were recovered and analyzed by immunoblotting for Cytochrome c and mitoHsp70.

[6] = long versus short α5 peptide, 0.2 µM
[7] = 10 µM peptide, 5 min incubation, 30°C, Western blot of supernatant and pellet
[8] = only at the highest concentration assayed, 25 µM, 5 min

## AREVIPMAAVKQALREAGDEFELRYRRAF [BCLX-BH3, peptide corresponding to the BH3 domain of BCL-xL]
[1]; BH3 peptides, dose-response, Figure 7C
  cytochrome c release, in words: no cytochrome c release
[1]
  effect on isolated mitochondria, in words: lack of effect

## DGNFNWGRVVALFYFASKLVLKALSTKVPELIRT [BAX-α5L, long version of BAX helix α5, extended at both ends]
[2]
  final increase of surface pressure πmax (insertion), in words: much lower value
[2]; [6]
  surface pressure compared to BAX-α5S: about half
[3]; [7]
  cytochrome c release, in words: some residual cytochrome c was still present in the mitochondrial pellet

## EKEKTMLVLALLLAKKVASH [BID-α6, first helix (α6) of the central hairpin of BID]
[2]
  final increase of surface pressure πmax (insertion), in words: higher than the one of the BH3 peptides
[3]; 10 µM peptide, 30°C, Western blot
  incubation time at which the mitochondrial pool of cytochrome c is depleted: 1 h

## ELIRTIMGWTLDFLRERLLVWIQD [BAX-α6, second helix (α6) of the central hairpin of BAX]
[2]
  final increase of surface pressure πmax (insertion), in words: highest increases in surface pressure
[3]; [7]
  cytochrome c release, in words: complete depletion of all mitochondrial cytochrome c

## EQIMKTGAFLLQGFIQDRAGRW [BAX-α1, control peptide, first helix localized at the N-terminus of BAX, reference compound]
[4]
  Δπ in POPC/DOPE monolayers: 4
  Δπ in POPC/DOPE/CL monolayers: 3.4

## ESQEDIIRNIARHLAQVGDSMDRSIPPGL [BID-BH3, peptide corresponding to the BH3 domain of BID]
[2]
  initial velocity of surface pressure increase Vi (affinity), in words: strong
[1]; BH3 peptides, Figure 7C
  concentration at which cytochrome c release starts: 25 µM

## NWGRVVALFYFASKLVLKALSTKVPELIR [BAX-α5M]
[5]; mitochondria from MEF DKO
  cytochrome c release, in words: Cytochrome c release also occurred
[2]
  initial velocity of surface pressure increase Vi (affinity), in words: slightly smaller

## NWGVVKALFYFASVLRLKALSTKVPELIR [BAX-α5MS]
[5]; mitochondria from MEF and MEF DKO, relative to BAX-α5M
  kinetics of cytochrome c release, in words: increased lag time and a decreased rate of cytochrome c release
[2]
  final increase of surface pressure πmax (insertion), in words: reduced surface pressure compared to BAX-α5M

## RDGVNWGRIVAFFSFGGALSVESVDKEMQVLVSR [BCLX-α5L, long version of helix α5 of BCL-xL]
[2]
  final increase of surface pressure πmax (insertion), in words: higher than the one of the BH3 peptides
[2]; [6]
  increase in surface pressure compared to BCLX-α5S: ~5 fold
[3]; [8]
  cytochrome c release, in words: release of large amounts of cytochrome c

## SLLRDVFHTTVNFINQANLRTYVR [BID-α7, second helix (α7) of the central hairpin of BID]
[2]
  final increase of surface pressure πmax (insertion), in words: lowest increase of surface pressure
[1]
  effect on isolated mitochondria, in words: lack of effect

## TARWKKWGFQPRLKEQEGDVARDSQR [BCL2L10-LAAS, control peptide, connecting region between predicted α5-α6 helices of BCL2L10 (Long Amino Acid Stretch), reference compound]
[4]
  Δπ in POPC/DOPE monolayers: 3.4
  Δπ in POPC/DOPE/CL monolayers: 5.5

## VLVSRIAAWMATYLNDHLEPWIQE [BCLX-α6, second helix (α6) of the central hairpin of BCL-xL]
[2]
  final increase of surface pressure πmax (insertion), in words: higher than the one of the BH3 peptides
  initial velocity of surface pressure increase Vi (affinity), in words: strong
[3]; [8]
  cytochrome c release, in words: release of large amounts of cytochrome c

## VPQDASTKKLSECEKRIGNELDSNMELQR [BAX-BH3m, BAX BH3 mutant harboring substitutions (L63E/D68N)]
[1]; even at 100 µM (data not shown)
  cytochrome c release, in words: failed to induce cytochrome c release

## VPQDASTKKLSECLKRIGDELDSNMELQR [BAX-BH3, peptide corresponding to the BH3 domain of BAX]
[1]; BH3 peptides, Figure 7C
  concentration at which cytochrome c release starts: 25 µM

## WGRIVAFFSFGGALSVESVDK [BCLX-α5S, short peptide of helix α5 of BCL-xL]
[2]
  final increase of surface pressure πmax (insertion), in words: lowest increase of surface pressure
  initial velocity of surface pressure increase Vi (affinity), in words: strong
[3]; all doses and times tested (2.5, 10 or 25 µM)
  cytochrome c release, in words: completely failed to release cytochrome c
[1]
  effect on isolated mitochondria, in words: lack of effect
